IC50 data for 19 compounds are collected here from ChEMBL document CHEMBL1152123, “11-Substituted 2,3-dimethoxy-8,9-methylenedioxybenzo[i]phenanthridine derivatives as novel topoisomerase I-targeting agents” (Bioorg Med Chem, 2008).

Format in all cases: functional, cell-based
In test [1] the test system is P388. Put plainly: cells. Conditions: Mus musculus.
Test [2] concerns P388. Briefly: Cytotoxicity against mouse P388 cells by MTT method. Background: Tetrazolium assays rely on reduction of a dye to a coloured formazan, in cell work by metabolically active cells.
Test [3] in a line: Cytotoxicity against human RPMI8402 cells by MTT method. Conditions: RPMI 8402.
Test [4] in a line: Cytotoxicity against human KBV1 cells by MTT method. Conditions: KB-V1.
The nature of test [5]: Cytotoxicity against camptothecin-resistant human CPT-K5 cells by MTT method.
Test [6] in a line: Cytotoxicity against human KBH5.0 cells by MTT method. Particulars: KBH5.0 cell.
Test [7] can be described thus: Cytotoxicity against human KB3-1 cells by MTT method. Conditions: KB 3-1.

In the case of `COc1cc2cc(C(=O)NCCN(C)C)c3c4cc5c(cc4ncc3c2cc1OC)OCO5`, the half-inhibitory concentration (IC50) – broadly, the concentration at which inhibition is half-maximal – with P388 [1] stood at 260 nM; in the test with P388 [2] it was 15 nM; in test [3], 35 nM; in test [4] it was 1400 nM; in test [5] it was 630 nM; in test [6], 200 nM. Also, half-maximal inhibition in test [7] (IC50) was put at 27 nM.

Regarding `COc1cc2c(=O)n(CCN(C)C)c3c4cc5c(cc4ncc3c2cc1OC)OCO5`, the values for the 50% inhibitory concentration (IC50) (in the test with P388 [1]; in test [4]; in test [7]) were 230 nM, 5 nM and 5 nM, respectively.

Take `COc1cc2cc(CC[N+](=O)[O-])c3c4cc5c(cc4ncc3c2cc1OC)OCO5`: the half-inhibitory concentration (IC50) in the test with P388 [1] is above 10000 nM; with P388 [2], 70 nM; in test [3], 60 nM; in test [4], 360 nM; in test [5], above 10000 nM; in test [6] it was 320 nM. In test [7], the IC50 was found to be 150 nM.

Turning to `CC[C@@]1(O)C(=O)OCc2c1cc1n(c2=O)Cc2cc3c(CN(C)C)c(O)ccc3nc2-1` [TOPOTECAN], the IC50 with P388 [1] was above 10000 nM; in test [3], 210 nM; in test [4] it was 440 nM; in test [7], 40 nM.

Take `COc1cc2cc(CCN)c3c4cc5c(cc4ncc3c2cc1OC)OCO5`: the IC50 amounted to 180 nM in the test on P388 [1]; 14 nM in the test on P388 [2]; 32 nM in test [3]; 500 nM in test [4]; 200 nM in test [5]; 110 nM in test [6]. In test [7], this compound returned a 50% inhibitory concentration (IC50) of 20 nM.

Consider `CCc1c2c(nc3ccc(OC(=O)N4CCC(N5CCCCC5)CC4)cc13)-c1cc3c(c(=O)n1C2)COC(=O)[C@]3(O)CC` [IRINOTECAN], for which the concentration for half-maximal inhibition (IC50) in test [4] stood at 40000 nM; in test [6], 7400 nM; in test [7] it was 680 nM.

As to `COc1cc2cc(CO)c3c4cc5c(cc4ncc3c2cc1OC)OCO5`, the half-inhibitory concentration (IC50) in the test on P388 [1] is above 10000 nM; in the test with P388 [2], 60 nM; in test [3], 120 nM; in test [4] it was 400 nM; in test [5], above 10000 nM; in test [6], 400 nM. The compound also showed a concentration for half-maximal inhibition (IC50) in test [7] of 150 nM.

Consider `CC[C@@]1(O)C(=O)OCc2c1cc1n(c2=O)Cc2cc3ccccc3nc2-1` [CAMPTOTHECIN], for which the IC50 in the test on P388 [1] was above 10000 nM; with P388 [2], 4 nM; in test [3], 4 nM; in test [7], 15 nM.

Regarding `CNC(=O)c1cc2cc(OC)c(OC)cc2c2cnc3cc4c(cc3c12)OCO4`, the IC50 in the test with P388 [1] is above 10000 nM; in test [3], 280 nM; in test [4], 420 nM; in test [5], above 10000 nM; in test [6], 480 nM; in test [7], 230 nM.

Turning to `COc1cc2cc(C(N)=O)c3c4cc5c(cc4ncc3c2cc1OC)OCO5`, the IC50 is above 10000 nM in the test on P388 [1]; 35 nM in the test on P388 [2]; 140 nM in test [3]; 400 nM in test [4]; above 10000 nM in test [5]; 2700 nM in test [6]. In test [7], this compound yielded a half-maximal inhibitory concentration (IC50) of 55 nM.

For the compound `COc1cc2cc(C(=O)N(C)C)c3c4cc5c(cc4ncc3c2cc1OC)OCO5`, the IC50 in the test on P388 [1] is above 10000 nM; with P388 [2] it was 980 nM; in test [3], 1600 nM; in test [4], 4000 nM; in test [5], above 10000 nM; in test [6], 3600 nM. Besides, in test [7], 1200 nM corresponded to half-maximal inhibition (IC50).

Consider `COc1cc2cc(CCCN(C)C)c3c4cc5c(cc4ncc3c2cc1OC)OCO5`, for which the IC50 in the test with P388 [1] was 200 nM; in the test on P388 [2], 40 nM; in test [3], 60 nM; in test [4], 400 nM; in test [5], 290 nM; in test [6] it was 130 nM. Also, in test [7], the midpoint of inhibition, the IC50, lay at 35 nM.

With `COc1cc2cc(CN)c3c4cc5c(cc4ncc3c2cc1OC)OCO5`, the IC50 is 300 nM in the test with P388 [1]; 26 nM with P388 [2]; 120 nM in test [3]; 160 nM in test [4]; 2100 nM in test [5]; 210 nM in test [6]. The same compound registered an IC50 in test [7] of 30 nM.

Take `COc1cc2cc(/C=C/CN(C)C)c3c4cc5c(cc4ncc3c2cc1OC)OCO5`: the IC50 in the test with P388 [1] came to 350 nM; in the test with P388 [2], 40 nM; in test [3], 35 nM; in test [4] it was 330 nM; in test [5], 350 nM; in test [6] it was 70 nM. The compound also registered an IC50 in test [7] of 30 nM.

In the case of `COc1cc2cc(C=O)c3c4cc5c(cc4ncc3c2cc1OC)OCO5`, the half-maximal inhibitory concentration (IC50) is 10000 nM in the test on P388 [1]; 120 nM in the test on P388 [2]; 100 nM in test [3]; 300 nM in test [4]; above 10000 nM in test [5]; 290 nM in test [6]. The compound further displayed an IC50 in test [7] of 130 nM.

In the case of `CCOC(=O)c1cc2cc(OC)c(OC)cc2c2cnc3cc4c(cc3c12)OCO4`, the IC50 in the test with P388 [1] is above 10000 nM; in the test with P388 [2], 4000 nM; in test [3], 10000 nM; in test [4], above 10000 nM; in test [5], above 10000 nM; in test [6], above 10000 nM. This compound gave an IC50 in test [7] above 10000 nM.

In the case of `COc1cc2cc(CN(C)C)c3c4cc5c(cc4ncc3c2cc1OC)OCO5`, the concentration for half-maximal inhibition (IC50) in the test on P388 [1] amounted to 2000 nM; with P388 [2], 100 nM; in test [3], 100 nM; in test [4], 250 nM; in test [5] it was 2700 nM; in test [6], 290 nM. The compound further had an IC50 in test [7] of 60 nM.

For the compound `COc1cc2cc(CCN(C)C)c3c4cc5c(cc4ncc3c2cc1OC)OCO5`, the concentration for half-maximal inhibition (IC50) stood at 180 nM with P388 [1]; 15 nM in the test on P388 [2]; 20 nM in test [3]; 60 nM in test [4]; 330 nM in test [5]; 40 nM in test [6]. The compound further gave an IC50 in test [7] of 21 nM.

Regarding `COc1cc2cc(/C=C/[N+](=O)[O-])c3c4cc5c(cc4ncc3c2cc1OC)OCO5`, the IC50 in the test on P388 [1] is 10000 nM; in the test on P388 [2] it was 180 nM; in test [3], 550 nM; in test [4], 450 nM; in test [5], above 10000 nM; in test [6], 420 nM. In test [7], this compound gave a 50% inhibitory concentration (IC50) of 180 nM.
